The target in assay [1] is T1, integrin αvβ8 (Homo sapiens, UniProt P06756+P26012). In words: AlphaLISA competition assay vs LAP, biotinylated αvβ8. Type of assay: binding. In general terms: Alpha assays give light when donor and acceptor beads are brought close together.
Assay [2] deals with T2, integrin αvβ6 (Homo sapiens, UniProt P06756+P18564). Description: AlphaLISA competition assay vs LAP, biotinylated αvβ6. Type of assay: binding.
Assay [3] has as its target T1, integrin αvβ8. In words: ELISA competition assay, integrin αvβ8 binding to LAP. On the technique in general: In an ELISA, binding on a coated surface is turned into a signal by an enzyme label.
Assay [4] deals with T2, integrin αvβ6. In words: ELISA competition assay, integrin αvβ6 binding to LAP.
Where [5] appears, read: αvβ6 IC50, ELISA competition vs LAP, mean, n ≥ 3.

Usually IC50 stands for the concentration that inhibits the measured activity by half. Low readings indicate greater potency, high ones weaker potency.

Bridge positions count the residues as written; N and C are the ends. Peptide text beside a SMILES is read from it.

Take `CC(C)C[C@H](NC(=O)[C@H](CC(=O)O)NC(=O)CNC(=O)[C@H](CCCNC(=N)N)NC(=O)[C@@H](NC(=O)[C@H](Cc1ccccc1)NC(=O)[C@H](Cc1ccc(O)cc1)NC(=O)[C@@H]1CCC(=O)NCC(=O)NCC(=O)N[C@@H](C)C(=O)NCC(=O)N[C@@H](Cc2c[nH]cn2)C(=O)N[C@@H](C(C)C)C(=O)N2CCC[C@H]2C(=O)N1)C(C)C)C(=O)N[C@@H](CCC(=O)O)C(=O)N[C@@H](CO)C(=O)N[C@@H](Cc1ccccc1)C(=O)N[C@@H](Cc1ccc(O)cc1)C(=O)NCC(=O)O` [lassotide 27] (GGAGHVPEYFVRGDLESFYG-OH; lactam N-8; C-terminus assumed): the IC50 was found to be 264 nM on integrin αvβ8 [1] and 141 nM on integrin αvβ6 [2].

For the compound `CC(C)C[C@H](NC(=O)[C@H](CC(=O)O)NC(=O)CNC(=O)[C@H](CCCNC(=N)N)NC(=O)[C@@H](NC(=O)[C@H](Cc1ccccc1)NC(=O)[C@H](Cc1ccc(O)cc1)NC(=O)[C@@H]1CCC(=O)NCC(=O)NCC(=O)N[C@@H](C)C(=O)NCC(=O)N[C@@H](Cc2c[nH]cn2)C(=O)N[C@@H](C(C)C)C(=O)N2CCC[C@H]2C(=O)N1)C(C)C)C(=O)N[C@@H](Cc1ccc(O)cc1)C(=O)N[C@@H](CO)C(=O)N[C@@H](Cc1ccccc1)C(=O)N[C@@H](Cc1ccc(O)cc1)C(=O)NCC(=O)O` [lassotide 25] (GGAGHVPEYFVRGDLYSFYG-OH; lactam N-8; C-terminus assumed), the IC50 on integrin αvβ8 [1] is 205 nM; on integrin αvβ6 [2], 295 nM.

Consider `CC[C@H](C)[C@H](NC(=O)[C@@H]1CCCN1C(=O)[C@H](CCSC)NC(=O)[C@H](CC(=O)O)NC(=O)CNC(=O)[C@H](CCCNC(=N)N)NC(=O)[C@@H](NC(=O)[C@H](Cc1ccccc1)NC(=O)[C@H](Cc1ccc(O)cc1)NC(=O)[C@@H]1CCC(=O)NCC(=O)NCC(=O)N[C@@H](C)C(=O)NCC(=O)N[C@@H](Cc2c[nH]cn2)C(=O)N[C@@H](C(C)C)C(=O)N2CCC[C@H]2C(=O)N1)C(C)C)C(=O)N[C@@H](CO)C(=O)N[C@@H](Cc1ccccc1)C(=O)N[C@@H](Cc1ccc(O)cc1)C(=O)NCC(=O)O` [lassotide 5] (GGAGHVPEYFVRGDMPISFYG-OH; lactam N-8; C-terminus assumed), for which the IC50 on integrin αvβ8 [1] came to 259 nM; at integrin αvβ6 [2], 280 nM.

Consider `CC(C)C[C@H](NC(=O)[C@H](CC(=O)O)NC(=O)CNC(=O)[C@H](CCCNC(=N)N)NC(=O)[C@@H](NC(=O)[C@H](Cc1ccccc1)NC(=O)[C@H](Cc1ccc(O)cc1)NC(=O)[C@@H]1CCC(=O)NCC(=O)NCC(=O)N[C@@H](CCCNC(=N)N)C(=O)NCC(=O)N[C@@H](CO)C(=O)N[C@@H](C(C)C)C(=O)N2CCC[C@H]2C(=O)N1)C(C)C)C(=O)N[C@@H](CCC(N)=O)C(=O)N[C@@H](CO)C(=O)N[C@@H](Cc1ccccc1)C(=O)N[C@@H](Cc1ccc(O)cc1)C(=O)NCC(=O)O` [lassotide 39] (GGRGSVPEYFVRGDLQSFYG-OH; lactam N-8; C-terminus assumed), for which the IC50 at integrin αvβ8 [3] worked out at 5.1 nM; at integrin αvβ6 [4] (setting [5]), 3.1 nM.

For `CC[C@H](C)[C@H](NC(=O)[C@H](CC(C)C)NC(=O)[C@H](CC(=O)O)NC(=O)CNC(=O)[C@H](CCCNC(=N)N)NC(=O)[C@H](C)NC(=O)[C@H](Cc1ccccc1)NC(=O)[C@H](Cc1ccc(O)cc1)NC(=O)[C@@H]1CCC(=O)NCC(=O)NCC(=O)N[C@@H](C)C(=O)NCC(=O)N[C@@H](Cc2c[nH]cn2)C(=O)N[C@@H](C(C)C)C(=O)N2CCC[C@H]2C(=O)N1)C(=O)N[C@@H](CO)C(=O)N[C@@H](Cc1ccccc1)C(=O)N[C@@H](Cc1ccc(O)cc1)C(=O)NCC(=O)O` [lassotide 19] (GGAGHVPEYFARGDLISFYG-OH; lactam N-8; C-terminus assumed), the IC50 on integrin αvβ8 [3] worked out at 24 nM; on integrin αvβ6 [4] (setting [5]) it was 66 nM.

Consider `CC[C@H](C)[C@@H]1NC(=O)[C@H](Cc2c[nH]cn2)NC(=O)CNC(=O)[C@H]([C@@H](C)O)NC(=O)CNC(=O)CNC(=O)CC[C@@H](C(=O)N[C@@H](Cc2ccc(O)cc2)C(=O)N[C@@H](Cc2ccccc2)C(=O)N[C@@H](CCC(N)=O)C(=O)N[C@@H](CCCNC(=N)N)C(=O)NCC(=O)N[C@@H](CC(=O)O)C(=O)N[C@@H](CC(C)C)C(=O)N[C@@H](CCC(N)=O)C(=O)N[C@@H](CO)C(=O)N[C@@H](Cc2ccccc2)C(=O)N[C@@H](Cc2ccc(O)cc2)C(=O)NCC(=O)O)NC(=O)[C@@H]2CCCN2C1=O` [lassotide 46] (GGTGHIPEYFQRGDLQSFYG-OH; lactam N-8; C-terminus assumed), for which the results for the IC50 at integrin αvβ8 [3] and at integrin αvβ6 [4] (setting [5]) were 1.3 nM and 2.1 nM, respectively.

Regarding `CC[C@H](C)[C@H](NC(=O)[C@H](CC(C)C)NC(=O)[C@H](CC(=O)O)NC(=O)CNC(=O)[C@H](CCCNC(=N)N)NC(=O)[C@@H](NC(=O)[C@H](Cc1ccccc1)NC(=O)[C@H](Cc1ccc(O)cc1)NC(=O)[C@@H]1CCC(=O)NCC(=O)NCC(=O)N[C@@H](CCCCN)C(=O)NCC(=O)N[C@@H](Cc2c[nH]cn2)C(=O)N[C@@H](C(C)C)C(=O)N2CCC[C@H]2C(=O)N1)C(C)C)C(=O)N[C@@H](CO)C(=O)N[C@@H](Cc1ccccc1)C(=O)N[C@@H](Cc1ccc(O)cc1)C(=O)NCC(=O)O` [lassotide 28] (GGKGHVPEYFVRGDLISFYG-OH; lactam N-8; C-terminus assumed), the IC50 was found to be 48 nM on integrin αvβ8 [3] and 44 nM at integrin αvβ6 [4] (setting [5]).

For the compound `CC[C@H](C)[C@@H]1NC(=O)[C@H](CO)NC(=O)CNC(=O)[C@H](CCCNC(=N)N)NC(=O)CNC(=O)CNC(=O)CC[C@@H](C(=O)N[C@@H](Cc2ccc(O)cc2)C(=O)N[C@@H](Cc2ccccc2)C(=O)N[C@H](C(=O)N[C@@H](CCCNC(=N)N)C(=O)NCC(=O)N[C@@H](CC(=O)O)C(=O)N[C@@H](CC(C)C)C(=O)N[C@@H](CCC(N)=O)C(=O)N[C@@H](CO)C(=O)N[C@@H](Cc2ccccc2)C(=O)N[C@@H](Cc2ccc(O)cc2)C(=O)N[C@@H](CCCCN)C(=O)O)C(C)C)NC(=O)[C@@H]2CCCN2C1=O` [lassotide 43] (GGRGSIPEYFVRGDLQSFYK-OH; lactam N-8; C-terminus assumed), the IC50 turned out to be 5.1 nM on integrin αvβ8 [3] and 1.2 nM at integrin αvβ6 [4] (setting [5]).

Take `CC[C@H](C)[C@H](NC(=O)[C@H](CC(C)C)NC(=O)[C@H](CC(=O)O)NC(=O)CNC(=O)[C@H](CCCNC(=N)N)NC(=O)[C@@H](NC(=O)[C@H](Cc1ccccc1)NC(=O)[C@H](Cc1ccc(O)cc1)NC(=O)[C@@H]1CCC(=O)NCC(=O)NCC(=O)N[C@@H](Cc2c[nH]cn2)C(=O)NCC(=O)N[C@@H](Cc2c[nH]cn2)C(=O)N[C@@H](C(C)C)C(=O)N2CCC[C@H]2C(=O)N1)C(C)C)C(=O)N[C@@H](CO)C(=O)N[C@@H](Cc1ccccc1)C(=O)N[C@@H](Cc1ccc(O)cc1)C(=O)NCC(=O)O` [lassotide 31] (GGHGHVPEYFVRGDLISFYG-OH; lactam N-8; C-terminus assumed): the IC50 on integrin αvβ8 [3] amounted to 27 nM; on integrin αvβ6 [4] (setting [5]), 21 nM.

On to `CC[C@H](C)[C@@H]1NC(=O)[C@H](CO)NC(=O)CNC(=O)[C@H](CCCNC(=N)N)NC(=O)CNC(=O)CNC(=O)CC[C@@H](C(=O)N[C@@H](Cc2ccc(O)cc2)C(=O)N[C@@H](Cc2ccccc2)C(=O)N[C@H](C(=O)N[C@@H](CCCNC(=N)N)C(=O)NCC(=O)N[C@@H](CC(=O)O)C(=O)N[C@@H](CC(C)C)C(=O)N[C@@H](CCC(N)=O)C(=O)N[C@@H](CO)C(=O)N[C@@H](Cc2ccccc2)C(=O)N[C@@H](Cc2ccc(O)cc2)C(=O)NCC(=O)O)C(C)C)NC(=O)[C@@H]2CCCN2C1=O` [lassotide 41] (GGRGSIPEYFVRGDLQSFYG-OH; lactam N-8; C-terminus assumed), for which the IC50 on integrin αvβ8 [3] came out at 5.8 nM; at integrin αvβ6 [4] (setting [5]) it was 1.4 nM.

On to `CC(C)C[C@H](NC(=O)[C@H](CC(=O)O)NC(=O)CNC(=O)[C@H](CCCNC(=N)N)NC(=O)[C@@H](NC(=O)[C@H](Cc1ccccc1)NC(=O)[C@H](Cc1ccc(O)cc1)NC(=O)[C@@H]1CCC(=O)NCC(=O)NCC(=O)N[C@@H](CCCNC(=N)N)C(=O)NCC(=O)N[C@@H](CCC(N)=O)C(=O)N[C@@H](C(C)C)C(=O)N2CCC[C@H]2C(=O)N1)C(C)C)C(=O)N[C@@H](CCC(N)=O)C(=O)N[C@@H](CO)C(=O)N[C@@H](Cc1ccccc1)C(=O)N[C@@H](Cc1ccc(O)cc1)C(=O)NCC(=O)O` [lassotide 40] (GGRGQVPEYFVRGDLQSFYG-OH; lactam N-8; C-terminus assumed), for which the IC50 at integrin αvβ8 [3] was determined as 2.6 nM; at integrin αvβ6 [4] (setting [5]), 2 nM.

With `CC[C@H](C)[C@H](NC(=O)[C@H](CC(C)C)NC(=O)[C@H](CC(=O)O)NC(=O)CNC(=O)[C@H](CCCNC(=N)N)NC(=O)[C@@H](NC(=O)[C@H](Cc1ccccc1)NC(=O)[C@H](Cc1ccc(O)cc1)NC(=O)[C@@H]1CCC(=O)NCC(=O)NCC(=O)N[C@@H]([C@@H](C)O)C(=O)NCC(=O)N[C@@H](Cc2c[nH]cn2)C(=O)N[C@@H](C(C)C)C(=O)N2CCC[C@H]2C(=O)N1)C(C)C)C(=O)N[C@@H](CO)C(=O)N[C@@H](Cc1ccccc1)C(=O)N[C@@H](Cc1ccc(O)cc1)C(=O)NCC(=O)O` [lassotide 34] (GGTGHVPEYFVRGDLISFYG-OH; lactam N-8; C-terminus assumed), the IC50 was 28 nM on integrin αvβ8 [3] and 44 nM at integrin αvβ6 [4] (setting [5]).

On to `CC(C)C[C@H](NC(=O)[C@H](CC(=O)O)NC(=O)CNC(=O)[C@H](CCCNC(=N)N)NC(=O)[C@H](CCC(N)=O)NC(=O)[C@H](Cc1ccccc1)NC(=O)[C@H](Cc1ccc(O)cc1)NC(=O)[C@@H]1CCC(=O)NCC(=O)NCC(=O)N[C@@H]([C@@H](C)O)C(=O)NCC(=O)N[C@@H](Cc2c[nH]cn2)C(=O)N[C@@H](C(C)C)C(=O)N2CCC[C@H]2C(=O)N1)C(=O)N[C@@H](CCC(N)=O)C(=O)N[C@@H](CO)C(=O)N[C@@H](Cc1ccccc1)C(=O)N[C@@H](Cc1ccc(O)cc1)C(=O)NCC(=O)O` [lassotide 45] (GGTGHVPEYFQRGDLQSFYG-OH; lactam N-8; C-terminus assumed), for which the IC50 at integrin αvβ8 [3] is 1 nM; at integrin αvβ6 [4] it was 0.7 nM.

For the origin of these results see publication doi:10.1101/2025.01.28.635346v1 (bioRxiv, 2025).
